Measured values published in patent publication US12247004B2, “2-amino-N-(amino-oxo-aryl-lambda6-sulfanylidene)acetamide compounds and their therapeutic use” (Oxford Drug Design Limited, priority 2019, dated 2025).
pIC50: −log10 of the molar value. Converted amounts (≈) assume the structure as drawn. Where a name gives a salt, the structure may show the parent alone. Read-outs that look alike come from different tables or passages of the source.

Key:
[1] = molecular target: Leucyl-tRNA synthetase (LeuRS) (Escherichia coli (strain K12), UniProt P07813); assay: Leucyl-tRNA synthetase enzyme inhibition (AMP-Glo; single point % inhibition at 100 μM and IC50); assay type: biochemical
Excerpt: Study 1—Enzyme Inhibition
The aminoacylation reaction catalyzed by aminoacyl-tRNA synthetases (aaRS) takes place in two steps. In the first step, aaRS activates its cognate amino acid with ATP; and in the second step the activated amino acid is loaded to its corresponding tRNA. This reaction can be summarized as follows: aaRS+aa+ATP=aaRS-aa-AMP+PPi aaRS-aa-AMP+tRNA=aa-tRNA+AMP+aaRS
wherein: aaRS, aminoacyl-tRNA synthetase; aa, amino acid; aaRS-aa-AMP, enzyme-bound to aminoacyl-adenylate; AMP, adenosine monophosphate; aa-tRNA, aminoacyl-tRNA, PPi, inorganic pyrophosphate.
a. Single Point Percentage Inhibition
The activity of the pathogenic aaRSs was monitored by measuring AMP production using the commercial kit AMP-Glo (Promega, Madison, USA).
Ligand stock solutions were prepared in 100% DMSO at 10 mM concentration. An assay buffer consisting of 100 mM Tris HCl pH 7.6, 40 mM MgCl, 20 mM KCl and 150 mM NaCl was prepared in dH2O.
Using the same enzymatic assay in a 384-well plate format, ten point concentration response curves were generated for each compound using a top concentration of 10 μM. The known inhibitor LeuAMS was used as a positive control for the LeuRS assay. 100% DMSO was used as a negative control. The IC50 was calculated based on non-linear regression analysis.

[2] = Human cell viability / cytotoxicity (CellTiter-Glo, 24 hours); assay type: cell-based; details: human, HepG2 cells (ATCC HB-8065); HepG2 ATCC HB-8065, 24 hours; read-out: Cytotoxicity in HepG2 ATCC HB-8065 Cell Line, IC50
Description: Study 3—Human Cell Viability
Compounds were assessed for potential non-specific cytotoxic effects against a human hepatic cell line (HepG2 ATCC HB-8065). 96-well plates were seeded with HepG2 cells in concentration of 15,000 cells per well in 100 μL of MEM growth media completed with 1% NEAA and 1% sodium pyruvate. Border wells were filled with 100 μL of sterile PBS. Two days upon cells incubation, the compounds were added. Compound dilutions were prepared in 96-well V-bottom plate in pure DMSO. Growth media from 5 plates were aspirated and replaced with 98.7 μL of fresh growth media. 1.28 μL of compounds prepared in V-bottom plates were transferred with multichannel pipette into test plates (78.1× dilution). Final DMSO concentration was 1.28% per well. In control wells, 1.28 μL of DMSO was added in 98.7 μL of media. Compounds were tested in duplicates. Cells were incubated with compounds for 24 hours when cell viability was assessed by measuring ATP levels. ATP levels were measured by adding 50 μL of CellTiter-Glo reagent to each well and after 5 minutes of incubation luminescence was measured with SpectraMax i3. The potential effect of tested compounds on cell viability was determined by comparing the signal obtained in presence of different concentrations of the compounds with those obtained in the presence of DMSO only. The potential effects were then calculated and presented as IC50 values (μg/mL).

[3] = system: bacteria (ATCC reference strains); assay: Antibacterial activity, MIC by broth micro-dilution (CLSI)
[4] = E. coli LeuRS, read-out: Enzyme Inhibition - IC50, E. coli LeuRS
[5] = Acinetobacter baumannii, read-out: Antibacterial Activity (MIC), E = A. baumannii B1931
[6] = Escherichia coli, ATCC25922, read-out: Antibacterial Activity (MIC), A = E. coli ATCC 25922
[7] = Haemophilus influenzae, ATCC49247, read-out: Antibacterial Activity (MIC), F = H. influenzae ATCC 49247
[8] = Klebsiella pneumoniae, ATCC700603, read-out: Antibacterial Activity (MIC), C = K. pneumoniae ATCC 700603
[9] = Pseudomonas aeruginosa, ATCC27853, read-out: Antibacterial Activity (MIC), D = P. aeruginosa ATCC 27853
[10] = Escherichia coli, BAA2469, read-out: Antibacterial Activity (MIC), G = E. coli BAA-2469

Sequence of Leucyl-tRNA synthetase (LeuRS) (P07813 whole entry, looked up): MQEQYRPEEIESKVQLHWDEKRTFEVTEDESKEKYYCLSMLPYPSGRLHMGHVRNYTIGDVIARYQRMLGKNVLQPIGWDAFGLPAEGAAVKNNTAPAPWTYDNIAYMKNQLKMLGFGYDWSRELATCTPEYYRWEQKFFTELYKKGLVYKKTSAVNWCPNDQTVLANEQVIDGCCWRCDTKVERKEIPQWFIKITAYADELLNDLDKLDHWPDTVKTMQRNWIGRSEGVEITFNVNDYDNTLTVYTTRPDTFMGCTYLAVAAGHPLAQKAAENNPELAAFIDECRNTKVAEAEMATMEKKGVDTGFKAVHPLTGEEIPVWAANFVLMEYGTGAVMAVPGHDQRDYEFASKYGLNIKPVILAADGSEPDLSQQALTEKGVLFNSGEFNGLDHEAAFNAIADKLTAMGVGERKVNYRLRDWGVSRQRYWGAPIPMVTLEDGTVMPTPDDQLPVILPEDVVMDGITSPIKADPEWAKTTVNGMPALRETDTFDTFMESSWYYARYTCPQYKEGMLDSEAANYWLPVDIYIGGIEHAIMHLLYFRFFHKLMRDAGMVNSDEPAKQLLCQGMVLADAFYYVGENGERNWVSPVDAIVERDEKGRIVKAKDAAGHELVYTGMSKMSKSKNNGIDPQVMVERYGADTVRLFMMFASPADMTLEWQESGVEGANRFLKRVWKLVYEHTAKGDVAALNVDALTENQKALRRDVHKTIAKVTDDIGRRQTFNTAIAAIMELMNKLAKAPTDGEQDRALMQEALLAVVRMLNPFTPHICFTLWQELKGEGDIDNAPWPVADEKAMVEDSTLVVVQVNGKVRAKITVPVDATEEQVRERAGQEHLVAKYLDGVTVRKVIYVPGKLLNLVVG

SMILES	pIC50 [1]	IC50 at 24 h [2] [µg/mL]	pIC50 [1, 4]	other results
CC(C)C[C@H](N)C(=O)N=S(N)(=O)c1csc(Cl)c1 (mixture of isomers) [ANASIA-099]	7.14	> 64		
CC(C)C[C@H](N)C(=O)N=[S@](N)(=O)c1cccs1.Cl (single isomer, unassigned) [ANASIA-007-1, (S)-2-amino-N—((S)-amino(oxo)(thiophen-2-yl)-λ6-sulfanylidene)-4-methylpentanamide hydrochloride]		> 64	7.20	
CC(C)C[C@H](N)C(=O)N=S(N)(=O)c1cccc(Cl)c1F (stereo partly drawn) [ANASIA-001, (2S)-2-amino-N-(amino(3-chloro-2-fluorophenyl)(oxo)-λ6-sulfanylidene)-4-methylpentanamide 2,2,2-trifluoroacetate]		> 64	6.37	MIC [3, 5]: > 64 µg/mL; MIC ([3]; Enterobacter cloacae, read-out: Antibacterial Activity (MIC), B = Enterobacter cloacae B1966): > 64 µg/mL; MIC [3, 6]: 32 µg/mL (≈ 99.4 µM); MIC [3, 7]: > 64 µg/mL; MIC [3, 8]: > 64 µg/mL; MIC [3, 9]: > 64 µg/mL
CC(C)C[C@H](N)C(=O)N=[S@@](N)(=O)c1cccc(Cl)c1F [ANASIA-001-2]		> 64	5.45	
CC(C)C[C@H](N)C(=O)N=[S@@](N)(=O)c1ccccc1 [ANASIA-003-2, (S)-2-amino-N—((R)-amino(oxo)(phenyl)-λ6-sulfanylidene)-4-methylpentanamide hydrochloride]		> 64	5.65	
Cc1cccc([S@@](N)(=O)=NC(=O)[C@@H](N)CC(C)C)c1 [ANASIA-005-1]	5.52	> 64		
CC(C)C[C@H](N)C(=O)N=[S@@](N)(=O)c1ccsc1 [ANASIA-008-2]		> 64	5.70	
CC(C)C[C@H](N)C(=O)N=[S@](N)(=O)c1ccc(Cl)s1 [ANASIA-009-1]	5.74	> 64		
CC(C)C[C@H](N)C(=O)N=[S@](N)(=O)c1cccc(F)c1 [ANASIA-011-1]		> 64		
CC(C)C[C@H](N)C(=O)N=[S@@](N)(=O)c1cccc(F)c1 [ANASIA-011-2]		> 64		
CC(C)C[C@H](N)C(=O)N=S(N)(=O)c1cccc(F)c1 (stereo partly drawn) [ANASIA-011]		> 64		
CC(C)C[C@H](N)C(=O)N=[S@@](N)(=O)c1sccc1Cl [ANASIA-012-2]		> 64	5.49	
CC(C)C[C@H](N)C(=O)N=S(N)(=O)c1ccc2ccccc2c1 (stereo partly drawn) [ANASIA-013]		> 64	5.45	
Cc1ccc([S@](N)(=O)=NC(=O)[C@@H](N)CC(C)C)s1 [ANASIA-014-2]		> 64	5.40	
Cc1ccsc1[S@](N)(=O)=NC(=O)[C@@H](N)CC(C)C [ANASIA-015-2]		> 64	5.73	
CC(C)C[C@H](N)C(=O)N=[S@](N)(=O)c1cccc2ccccc12 [ANASIA-016-1]	5.66	> 64		
CC(C)C[C@H](N)C(=O)N=[S@@](N)(=O)c1cccc2ccccc12 [ANASIA-016-2]		> 64	5.25	
CC(C)C[C@H](N)C(=O)N=S(N)(=O)c1cccc2ccccc12 (stereo partly drawn) [ANASIA-016]		> 64	5.52	
CC(C)C[C@H](N)C(=O)N=[S@](N)(=O)c1ccc(C(F)F)s1.Cl [ANASIA-017-1]		> 64		MIC [3, 5]: > 64 µg/mL; MIC [3, 6]: 4 µg/mL; MIC [3, 10]: 22.6 µg/mL; MIC [3, 7]: 4 µg/mL; MIC [3, 8]: > 256 µg/mL; MIC [3, 9]: > 64 µg/mL
CC(C)C[C@H](N)C(=O)N=[S@](N)(=O)c1cccc(-c2ccccc2)c1 [ANASIA-018-1]	6.65	> 64		
CC(C)C[C@H](N)C(=O)N=[S@@](N)(=O)c1cccc(-c2ccccc2)c1 [ANASIA-018-2]		> 64	5.53	
CC(C)C[C@H](N)C(=O)N=S(N)(=O)c1ccc(Cl)c2ccccc12 (stereo partly drawn) [ANASIA-019]		> 64	5.65	

SMILES	pIC50 [1]	IC50 at 24 h [2] [µg/mL]	pIC50 [1, 4]	other results
CC(C)C[C@H](N)C(=O)N=[S@](N)(=O)c1ccc(F)c2ccccc12 [ANASIA-020-1]	5.69	> 64		
CC(C)C[C@H](N)C(=O)N=[S@@](N)(=O)c1ccc(F)c2ccccc12 [ANASIA-020-2]		> 64	5.39	
Cc1ccc([S@@](N)(=O)=NC(=O)[C@@H](N)CC(C)C)cc1 [ANASIA-021-1]	5.69	> 64		
COc1ccc([S@@](N)(=O)=NC(=O)[C@@H](N)CC(C)C)cc1C [ANASIA-022-1]	5.18	> 64		
CC(C)C[C@H](N)C(=O)N=S(N)(=O)c1cc2ccccc2s1 (stereo partly drawn) [ANASIA-023]	5.89	> 64		
CC(C)C[C@H](N)C(=O)N=[S@@](N)(=O)c1cc(F)ccc1F [ANASIA-024-2]		> 64	5.20	
CC(C)C[C@H](N)C(=O)N=[S@](N)(=O)c1c(F)cccc1F [ANASIA-026-1]	6.25	> 64		
CC(C)C[C@H](N)C(=O)N=[S@@](N)(=O)c1c(F)cccc1F [ANASIA-026-2]		> 64	5.35	
Cc1cc(F)ccc1[S@@](N)(=O)=NC(=O)[C@@H](N)CC(C)C [ANASIA-027-1]	5.34	> 64		
CC[C@H](C)[C@H](N)C(=O)N=S(N)(=O)c1ccc2ccccc2c1 (stereo partly drawn) [ANASIA-030]		> 64		
Cc1cnc(S(N)(=O)=NC(=O)[C@@H](N)CC(C)C)s1 (stereo partly drawn) [ANASIA-039]		> 64	5.05	
CC(C)C[C@H](N)C(=O)N=[S@](N)(=O)c1ccc(Cl)cc1 [ANASIA-040-1]	5.60	> 64		
CC(C)C[C@H](N)C(=O)N=[S@@](N)(=O)c1cccc(C#N)c1 [ANASIA-041-2]		> 64	6.08	
CC(C)C[C@H](N)C(=O)N=[S@](N)(=O)c1ccc(Cl)c(Cl)c1 [ANASIA-042-1]	5.95	> 64		
CC(C)C[C@H](N)C(=O)N=[S@@](N)(=O)c1ccc(Cl)c(Cl)c1 [ANASIA-042-2]		> 64	5.10	
CC(C)C[C@H](N)C(=O)N=[S@@](N)(=O)c1cccc(C(C)C)c1 [ANASIA-043-2]		> 64	6.13	
CC(C)C[C@H](N)C(=O)N=[S@@](N)(=O)c1cccc(Cl)c1Cl [ANASIA-046-2]	5.59	> 64		
CC(C)C[C@H](N)C(=O)N=[S@@](N)(=O)c1cccc(Oc2ccc(Cl)cc2)c1 [ANASIA-047-2]		45.3 (≈ 114 µM)	5.89	
CC(C)C[C@H](N)C(=O)N=[S@](N)(=O)c1cccc(C(C)(C)C)c1 [ANASIA-049-1]	6.53	> 64		
CC(C)C[C@H](N)C(=O)N=[S@](N)(=O)c1cccc(-c2cccc(F)c2)c1 [ANASIA-051-1, (S)-2-amino-N—((S)-amino(3′-fluoro-[1,1′-biphenyl]-3-yl)(oxo)-λ6-sulfanylidene)-4-methylpentanamide hydrochloride]	6.22	> 64		
CC(C)C[C@H](N)C(=O)N=[S@@](N)(=O)c1csc(C#N)c1.Cl [ANASIA-135-2]			6.58	MIC [3, 6]: 8 µg/mL; MIC [3, 10]: 64 µg/mL; MIC [3, 8]: > 256 µg/mL
CC(C)C[C@H](N)C(=O)N=[S@](N)(=O)c1cc(C#N)cs1.Cl [ANASIA-136-1]	7.14			MIC [3, 6]: 8 µg/mL; MIC [3, 10]: > 64 µg/mL; MIC [3, 8]: > 256 µg/mL
